Data on 3 molecules can be found in BindingDB's records for patent US10646492 (Incyte Corporation; Incyte Holdings Corporation, 2020).

As usually defined, the IC50 is the concentration at which inhibition is half-maximal.

The target of the test is T1, Phosphatidylinositol 4,5-bisphosphate 3-kinase catalytic subunit delta isoform (Homo sapiens, UniProt O00329).
T1 sequence (O00329 whole entry): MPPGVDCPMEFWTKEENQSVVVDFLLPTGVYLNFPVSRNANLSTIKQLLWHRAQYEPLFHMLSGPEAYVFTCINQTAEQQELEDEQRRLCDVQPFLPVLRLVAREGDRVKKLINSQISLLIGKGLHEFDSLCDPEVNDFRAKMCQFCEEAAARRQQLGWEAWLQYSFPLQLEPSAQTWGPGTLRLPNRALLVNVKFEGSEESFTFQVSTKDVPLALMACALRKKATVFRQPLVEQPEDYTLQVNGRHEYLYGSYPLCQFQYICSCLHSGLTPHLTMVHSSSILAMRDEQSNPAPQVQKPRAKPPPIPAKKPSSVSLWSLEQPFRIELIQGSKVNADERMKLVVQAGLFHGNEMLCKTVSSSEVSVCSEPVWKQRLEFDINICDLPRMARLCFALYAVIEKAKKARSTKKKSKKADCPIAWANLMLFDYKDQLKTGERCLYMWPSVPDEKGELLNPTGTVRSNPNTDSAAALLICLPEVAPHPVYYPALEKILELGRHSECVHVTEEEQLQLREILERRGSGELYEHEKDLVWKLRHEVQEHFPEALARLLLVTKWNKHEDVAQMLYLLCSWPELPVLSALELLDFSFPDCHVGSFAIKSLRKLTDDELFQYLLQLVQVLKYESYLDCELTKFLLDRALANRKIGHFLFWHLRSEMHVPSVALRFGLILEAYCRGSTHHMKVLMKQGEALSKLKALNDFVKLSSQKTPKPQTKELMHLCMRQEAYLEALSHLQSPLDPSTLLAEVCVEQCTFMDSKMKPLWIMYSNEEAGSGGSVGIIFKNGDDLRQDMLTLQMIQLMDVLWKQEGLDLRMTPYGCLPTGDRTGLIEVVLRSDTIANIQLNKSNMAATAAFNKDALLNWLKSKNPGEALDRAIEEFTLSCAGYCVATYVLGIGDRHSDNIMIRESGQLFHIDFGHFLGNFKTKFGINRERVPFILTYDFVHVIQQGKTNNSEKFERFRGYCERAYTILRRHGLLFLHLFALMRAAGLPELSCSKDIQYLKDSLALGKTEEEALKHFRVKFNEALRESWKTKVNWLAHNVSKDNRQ
Put plainly: Scintillation Proximity Assay. Here is the method:
The kinase reaction was conducted in polystyrene 384-well matrix white plate from Thermo Fisher Scientific in a final volume of 25 uL. Inhibitors were first diluted serially in DMSO and added to the plate wells before the addition of other reaction components. The final concentration of DMSO in the assay was 0.5%. The PI3K assays were carried out at room temperature in 20 mM MOPS, pH 6.7, 10 mM MgCl2, 5 mM DTT and CHAPS 0.03%. Reactions were initiated by the addition of ATP, the final reaction mixture consisted of 20 uM PIP2, 20 uM ATP, 0.2 uCi [gamma-33P]ATP, 4 nM PI3Kdelta. […] 25 mM EDTA, 400 uM ATP. The final concentration of SPA beads was 1.0 mg/mL. After the plate sealing, plates were shaken overnight at room temperature and centrifuged at 1800 rpm for 10 minutes, the radioactivity of the product was determined by scintillation counting on Topcount (PerkinElmer).
A general note: Scintillation proximity formats need no separation of bound from free tracer.
`CCOc1c(C(C)n2cc(C)c3c(N)ncnc32)cc(Cl)c(C#N)c1C1CN([C@@H](C)CO)C1` (stereo partly drawn) [US10646492, Example 309] had an IC50 of less than 0.01 µM. `COc1c(C(C)n2nc(C)c3c(N)ncnc32)cc(Cl)c(C)c1-c1ccnc(C(=O)C(C)C)c1` (stereo not drawn) [US10646492, Example 16] came in with an IC50 of less than 0.01 µM. In the case of `COc1c([C@H](C)n2cc(C)c3c(N)ncnc32)cc(Cl)c(C#N)c1C1CN([C@@H](C)CO)C1` [US10646492, Example 362], the IC50 is less than 0.01 µM.
